Reference: PubChem BioAssay (NCI)
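The compound was tested at five concentrations on cells cultured in 96-well plates, with a 48-hour exposure period. GI50: concentration for 50% inhibition of growth. Definition used: TGI = concentration required for complete inhibition of growth.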

Legend:
Assay in all cases: growth of human tumour cells (NCI), 48 h
ACHN renal = system: ACHN renal
CCRF-CEM leukemia = system: CCRF-CEM leukemia
HOP-92 NSCLC = system: HOP-92 NSCLC
KM12 colon = system: KM12 colon
OVCAR-8 ovarian = system: OVCAR-8 ovarian
SK-MEL-5 melanoma = system: SK-MEL-5 melanoma
SW-620 colon = system: SW-620 colon
UACC-257 melanoma = system: UACC-257 melanoma
LOX IMVI melanoma = system: LOX IMVI melanoma
RPMI-8226 leukemia = system: RPMI-8226 leukemia

Row | Compound | TGI (ACHN renal) | TGI (CCRF-CEM leukemia) | TGI (HOP-92 NSCLC) | TGI (KM12 colon) | TGI (OVCAR-8 ovarian) | TGI (SK-MEL-5 melanoma) | TGI (SW-620 colon) | TGI (UACC-257 melanoma) | GI50 (ACHN renal) | GI50 (CCRF-CEM leukemia) | GI50 (HOP-92 NSCLC) | GI50 (KM12 colon) | GI50 (LOX IMVI melanoma) | TGI (LOX IMVI melanoma) | GI50 (OVCAR-8 ovarian) | GI50 (RPMI-8226 leukemia) | TGI (RPMI-8226 leukemia) | GI50 (SK-MEL-5 melanoma) | GI50 (SW-620 colon) | GI50 (UACC-257 melanoma)
1 | Cc1cccc(C)c1N1C(=O)C(=O)C(c2nc3ccccc3s2)/C(=N/NC(=O)NN)C1=O (configuration not stated) | > 100 µM | > 100 µM | > 100 µM | > 100 µM | > 100 µM | > 100 µM | > 100 µM | > 100 µM | – | – | – | – | – | – | – | – | – | – | – | –
2 | COc1ccc(C(=O)c2nc3ccccc3n2CC(=O)c2ccc(Cl)cc2)cc1 | > 100 µM | > 26.4 µM | > 100 µM | > 100 µM | > 100 µM | 12.9 µM | > 100 µM | > 100 µM | 6400 nM | 2240 nM | > 100000 nM | 1590 nM | 6200 nM | > 100 µM | 6.3 µM | 1710 nM | > 23.9 µM | 2550 nM | 1290 nM | > 23.6 µM
3 | CCCCCCCCCCCC1CC(=O)NCCCN(C)CCCCN(C)CCCN1C (configuration not stated) | 3.08 µM | 2.85 µM | 2.68 µM | 2.96 µM | 3.33 µM | 3.43 µM | 2.35 µM | 3.06 µM | – | – | – | – | – | 2.84 µM | – | – | 4.09 µM | – | – | –
4 | O=C1[C@H]2ON(c3ccccc3)C(c3ccco3)[C@H]2C(=O)N1c1ccc(Cc2ccc(N3C(=O)[C@@H]4ON(c5ccccc5)C(c5ccco5)[C@@H]4C3=O)cc2)cc1 (some centres not stated) | > 100 µM | > 100 µM | > 100 µM | > 100 µM | – | > 100 µM | > 100 µM | > 100 µM | – | – | – | – | – | > 100 µM | – | – | > 100 µM | – | – | –
5 | CC(C)[O-].CC(C)[O-].O=c1cccccc1[O-].O=c1cccccc1[O-].[Ti+4] | > 100 µM | > 100 µM | 90.8 µM | 69.8 µM | > 100 µM | 69.8 µM | > 100 µM | > 100 µM | – | – | – | – | – | > 100 µM | – | – | > 100 µM | – | – | –
6 | CC(C)(C)NCC(COc1ccc([N+](=O)[O-])cc1)OP(c1ccccc1)c1ccccc1 (configuration not stated) | > 100 µM | 79.2 µM | – | > 100 µM | > 100 µM | 37.3 µM | > 100 µM | > 100 µM | – | – | – | – | – | 26.7 µM | – | – | 35.3 µM | – | – | –
7 | Cc1ccc2oc(=O)c(-c3ccccc3)nc2c1 | > 100 µM | > 100 µM | – | 50.4 µM | > 100 µM | > 100 µM | > 100 µM | > 100 µM | – | – | – | – | – | 62.9 µM | – | – | > 100 µM | – | – | –
8 | O=C(/C=C/c1cccc(O)c1)c1cccc(-n2cc(-c3ccc4ccccc4c3)[nH]c2=O)c1 | 3.08 µM | > 100 µM | 8.69 µM | 2.45 µM | > 100 µM | 2.41 µM | 0.605 µM | 18.4 µM | 1570 nM | 2030 nM | 518 nM | 1210 nM | 858 nM | 2.08 µM | 2.33 µM | 1670 nM | 6.91 µM | 1160 nM | 223 nM | 4.13 µM
9 | COc1ccc2[nH]c(-c3ccc(O)cc3)cc(=O)c2c1 | > 100 µM | 21.9 µM | 43.9 µM | 7.09 µM | 13.1 µM | 5.43 µM | > 100 µM | > 81.2 µM | – | – | – | – | – | > 90 µM | – | – | 65.2 µM | – | – | –
10 | CSc1ccc(N(C)c2nc(C)nc3c2CCC3)cc1 | > 100 µM | 94.7 µM | – | 12.9 µM | > 100 µM | – | > 100 µM | 48.4 µM | < 10 nM | < 10 nM | – | < 10 nM | < 10 nM | 13.7 µM | < 0.01 µM | < 10 nM | 25 µM | – | < 10 nM | 11.6 µM
11 | CCOC(=O)N1CCN(CCCCCOc2ccccc2C2CCCCC2)CC1 | 23.8 µM | 18.4 µM | 17.5 µM | 23.1 µM | – | 3.53 µM | 9.81 µM | – | 10600 nM | 4420 nM | 4070 nM | 7670 nM | 2850 nM | 12.5 µM | – | 1610 nM | 4.84 µM | 1520 nM | 3080 nM | –
12 | COc1ccc(-c2c(C3=NCCCN3)nnn2-c2ccc([N+](=O)[O-])cc2)cc1 | > 100 µM | > 100 µM | > 100 µM | > 100 µM | > 100 µM | > 100 µM | > 100 µM | > 100 µM | – | – | – | – | – | > 100 µM | – | – | > 100 µM | – | – | –
13 | CN1c2ccccc2SC2C(c3ccccc3)=NOC21 (configuration not stated) | > 100 µM | > 100 µM | – | > 100 µM | > 100 µM | – | > 100 µM | – | – | – | – | – | – | – | – | – | – | – | – | –
14 | O=C1C2=C(CCC2)Nc2cccc3ncn1c23 | > 100 µM | > 100 µM | – | > 100 µM | > 100 µM | > 100 µM | > 100 µM | > 100 µM | – | – | – | – | – | > 100 µM | – | – | > 100 µM | – | – | –
15 | N#C/C(=C1\SC(N=Nc2ccc(Cl)cc2)C(=O)N1c1ccccc1)c1nc2ccccc2[nH]1 (configuration not stated) | > 100 µM | 47.4 µM | 51.9 µM | – | > 100 µM | > 100 µM | > 100 µM | 92.6 µM | – | – | – | – | – | 57.4 µM | – | – | – | – | – | –
16 | [2H]c1nc(=Nc2cc(NC(=O)C=C)c(N(C)CCN(C)C)cc2OC)[nH]c(-c2cn(C([2H])([2H])[2H])c3ccccc23)c1[2H] | 1.65 µM | – | 2.45 µM | 11.5 µM | 24.5 µM | 3 µM | 3.87 µM | 3.88 µM | 83.6 nM | – | 1040 nM | 3150 nM | 1650 nM | 3.17 µM | 4 µM | – | – | 1640 nM | 1860 nM | 2.19 µM
17 | CCOC(OC1=C(C#N)CCCC1)C(CC)[Se]c1ccccc1 (configuration not stated) | 95.5 µM | 56.4 µM | 61.3 µM | > 100 µM | 34.7 µM | 33.5 µM | – | > 100 µM | – | – | – | – | – | 21.9 µM | – | – | 50.1 µM | – | – | –
18 | Cc1ccccc1/C=C/C(=O)c1ccccc1 | 32.8 µM | 69.3 µM | 37.6 µM | 48.6 µM | 63.9 µM | > 10 µM | > 10 µM | 42.4 µM | – | – | – | – | – | – | – | – | 71.4 µM | – | – | –
19 | Cc1ccc(NC(=O)/C(Cc2nc3ccc([N+](=O)[O-])cc3[nH]c2=O)=N\NC(=O)C[n+]2ccccc2)c(C)c1 | 47.6 µM | 61.1 µM | > 100 µM | > 100 µM | 74 µM | 55.4 µM | > 100 µM | > 100 µM | – | – | – | – | – | > 100 µM | – | – | – | – | – | –
